How the values were obtained:
[1] = Intraocular distribution and retention after topical instillation; type: in vivo, mouse; settings: for presence (retention) in the mice vitreous humor: FITC-labeled peptide eye drops, fluorescence of vitreous humor at different time points, n = 3 (each sample from 5 mice); for intraocular distribution of fluorescence after topical instillation: FITC-labeled peptide, 10 µL eye drop once, 12 h after instillation, fluorescence and LC/MS
Description: To study the intraocular distribution of the FITC‐labeled SSP‐1 and SSP‐2 after topical instillation, fluorescence observation and liquid chromatography‐mass spectrometry (LC/MS) were performed on the entire eyes of mice, the frozen sections of the eyes, and their vitreous humor (Figure 7A–D). […] The topical instillation of SSP eye drop was instilled once with 10 µL before fluorescence observation. However, intraocular injection was administrated once with the maximum volume of 2 µL to avoid overdose induced high intraocular pressure due to the limited volume of the vitreous cavity. […] Next, we studied the intraocular pharmacokinetics of SSP‐1 and SSP‐2 after topical instillation. […] Moreover, we established an in vitro blood‐retina barrier (BRB) model to investigate the transferring efficiency of SSP‐1 and SSP‐2 across the posterior ocular absorption barriers. […]
Intraocular Distribution of FG/FH. Male mice (20-25 g) derived from Charles River (Beijing, China) were used in this experiment. 10 μL FITC-labeled FH or FG (dissolved in artificial tear fluid, 20 nM) were gently dripped in the conjunctival sac.
The upper and lower eyelids were massaged to make homodisperse on the eye surface. After 12h FITC-labeled FH or FG were instilled, the mice were sacrificed and the eyeballs were wash in the PBS solution. luminescence signal was detected via the In-Vivo FX PRO system (Bruker).
(§1) Statistical analysis. Statistical analysis was conducted using Graphpad Prism 8.0 software. All data were expressed by mean ± SD. Unpaired two-tailed Student’s t-test (two groups) or one-way ANOVA (more than 2 groups) was used to analyze the statistical significances of the data. Person’s correlation analysis was conducted to […]

[2] = biological target: T1, Cy5-labeled sSema4D (Homo sapiens, UniProt Q92854); assay: CLSM recognition and capture of sSema4D; type: binding; settings: FITC-labeled SSP with Cy5-labeled sSema4D, 6 h
T1 construct: purchased Novoprotein Ltd. (Suzhou, China)
T1 sequence (Q92854 22-734 limits assumed): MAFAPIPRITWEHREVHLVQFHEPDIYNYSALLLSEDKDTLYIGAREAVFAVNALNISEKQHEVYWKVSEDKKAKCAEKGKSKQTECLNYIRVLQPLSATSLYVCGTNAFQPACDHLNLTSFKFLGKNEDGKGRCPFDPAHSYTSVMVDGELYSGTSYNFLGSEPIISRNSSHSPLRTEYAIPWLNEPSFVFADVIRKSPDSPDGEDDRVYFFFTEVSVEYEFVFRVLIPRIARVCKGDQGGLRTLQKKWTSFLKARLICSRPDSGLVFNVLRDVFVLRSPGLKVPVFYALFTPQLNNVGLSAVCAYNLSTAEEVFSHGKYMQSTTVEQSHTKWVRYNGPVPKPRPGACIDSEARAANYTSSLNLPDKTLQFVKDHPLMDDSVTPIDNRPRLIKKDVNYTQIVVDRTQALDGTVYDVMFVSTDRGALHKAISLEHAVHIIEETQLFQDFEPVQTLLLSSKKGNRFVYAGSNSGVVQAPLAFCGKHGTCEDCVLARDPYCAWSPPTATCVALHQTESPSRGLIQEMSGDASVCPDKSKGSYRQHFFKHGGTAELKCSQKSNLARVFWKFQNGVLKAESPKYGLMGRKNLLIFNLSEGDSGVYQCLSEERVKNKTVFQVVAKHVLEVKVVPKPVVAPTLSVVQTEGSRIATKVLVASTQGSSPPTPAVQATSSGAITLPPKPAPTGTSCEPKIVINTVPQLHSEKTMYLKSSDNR
Description: FITC‐labeled SSP‐1 or SSP‐2 and Cy5‐labeled sSema4D proteins were synthesized. Cy5‐labeled sSema4D were incubated with FITC‐labeled SSP‐1 and SSP‐2 nanostructure solutions for 6 h, respectively. […]
a resolution of 1.0 nm and a scanning speed of 300 nm/min. For each measurement, three spectra were collected and averaged.
CLSM observation. Sema4D protein was purchased from Novoprotein Ltd. (Suzhou, China). Sema4D protein cultured with SSP-1 or SSP-2 nanomaterials (30 μM) for 4 h were imaged using a Zeiss LSM710 confocal laser scanning microscope
(Ultra-VIEWVox, PerkinElmer). The parameters of confocal laser scanning microscope was a 40× objective lens.
Patient. Vitreous humor samples of DR patients were obtained immediately before intravitreal injection of anti-VEGF agents. Control vitreous humor samples were collected from nondiabetic patients receiving surgery for idiopathic macular hole. All of the human vitreous humor samples were collected based on informed consent. The vitreous samples were centrifuged at 4°C, and the supernatants were aliquoted into several sterile tubes and stored at -80°C. The procedure was approved by an ethics committee of Tongji Medical College, Huazhong University of Science and Technology, and strictly followed the Declaration of Helsinki guidelines.
Cell culture. […]

[3] = system: in vitro BRB model (ARPE-19 layer and HUVEC layer)
[4] = system: STZ model; assay: STZ-induced retinopathy model, retinal vascular leakage; type: in vivo, mouse; settings: for reduction of retinal vascular leakage by eye drops plus anti-VEGF injection compared with anti-VEGF injection alone: Evans blue, anti-VEGF antibody 2 µg intravitreal at third month, eye drops twice a day for 30 d, on average; for reduction of retinal vascular leakage by eye drops plus anti-VEGF injection compared with anti-VEGF injection alone / vascular leakage (Evans blue assay): n = 9; for diabetes-induced retinal acellular capillary formation: eye drops 10 µL per eye twice daily for 30 d, PDGFRb/collagen IV staining, n = 6
Description: follows: 5’-[…]-3’, 5’-
STZ. Eight-week-old male C57BL/6 mice were starved for 4 hours before each […]
injection of streptozotocin (STZ, Sigma, St. Louis, MO), and then injected with STZ […]
(50 mg/kg) for 5 consecutive days. Mice in the vehicle control group were […]
intraperitoneally injected with citrate buffer for 5 consecutive days. A blood glucose […]
meter (ONETOUCH, Johnson & Johnson, USA) was used to evaluate the fasting […]
blood glucose of the mice 7 days after the last injection of STZ. Mice with blood […]
glucose levels greater than or equal to 16.7 mM were considered successful in STZ […]
modeling. […]
Evans blue assay. Mice were intraperitoneally injected with Evans Blue dye (200 mg/kg) and circulated for 5 hours. The mice were perfused with PBS, and the eyes were fixed with 4% PFA at 4 degrees Celsius for 12 hours, and the retina was separated. Some retinas are tested for Evans Blue fluorescence using a fluorescence microscope. Adding formamide (70 μL/piece) to the rest of the retina and incubate overnight at 70°C to extract the […]. Detect the absorbance of formamide at 620/740 nm (background) with a microplate reader. Calculate the content of Evans blue in the retina from the standard curve, and then standardize it based on the weight of the retina and the content of Evans blue in the blood. […]
as §1

[5] = eye drops 10 µL per eye twice daily for 30 d after third month since diabetes induction, equal to intraocular anti-Sema4D antibody
[6] = intravitreal injection at third month since diabetes induction, retinas at fourth month, similar to anti-Sema4D antibody

Substance | presence (retention) in the mice vitreous humor [1] | intraocular distribution of fluorescence after topical instillation [1] | recognition and trapping of sSema4D (merge images) [2] | transfer across the in vitro BRB [3] | reduction of retinal vascular leakage by eye drops plus anti-VEGF injection compared with anti-VEGF injection alone [4] [%] | diabetes-induced retinal acellular capillary formation [4] | vascular leakage (Evans blue assay) [4, 5] | vascular leakage (Evans blue assay) [4, 6]
C16‐FFVLK‐KQKRPRH [SSP-1, smart supramolecular peptide, C16‐FFVLK‐KQKRPRH, self-assembling, captures sSema4D] | up to 5 days | mainly in the retina and vitreous humor | could completely cover the sSema4D | effectively transferred across the BRB | 20.21 | ameliorated | significantly decreased | significantly decreased
C16‐FFVLK‐KNKAAKG [SSP-2, smart supramolecular peptide, C16‐FFVLK‐KNKAAKG, self-assembling, captures sSema4D] | up to 5 days | mainly in the retina and vitreous humor | could completely cover the sSema4D | effectively transferred across the BRB | 15.49 | ameliorated | significantly decreased | significantly decreased

Reference: PMC9875641, “Ophthalmic Solution of Smart Supramolecular Peptides to Capture Semaphorin 4D against Diabetic Retinopathy” (Advanced Science, 2022)
